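Cultured in 96-well plates, cells were exposed to test compound for 48 hours across five concentrations. At the GI50, growth is halved.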 Active and inactive are the calls of the source. Cut-off read from the data, not from the text of the source: active = GI50 up to about 1.1 µM and inactive = higher.
Key:
Experiment in all cases: NCI anticancer screen, dose series, 48 h
[1] = tested on: DLD-1
[2] = tested on: DMS-273
[3] = tested on: KM-20L2
[4] = tested on: LXFL 529
[5] = tested on: SNB-78
[6] = tested on: XF498
[7] = tested on: DMS-114
[8] = tested on: HOP-18
[9] = tested on: RXF 631

Compound | GI50 [1] | GI50 [2] | GI50 [3] | GI50 [4] | GI50 [5] | GI50 [6] | GI50 [7] | GI50 [8] | GI50 [9]
O=C(O)CCCc1cc2c(s1)-c1cccc3cccc-2c13 | 39 µM (inactive) | 37.8 µM (inactive) | 52.2 µM (inactive) | 35 µM (inactive) | 27.6 µM (inactive) | 36.6 µM (inactive) | – | – | –
COc1ccccc1-n1c(C)nc2ccccc2c1=O | > 100 µM (inactive) | > 100 µM (inactive) | > 100 µM (inactive) | > 100 µM (inactive) | > 100 µM (inactive) | – | > 100 µM (inactive) | > 100 µM (inactive) | –
N#CCCN(CCC#N)c1ccc(/C=C2\N=C(c3cc([N+](=O)[O-])ccc3Cl)OC2=O)cc1 | – | > 100 µM (inactive) | > 100 µM (inactive) | 18.1 µM (inactive) | – | 35.4 µM (inactive) | 25.4 µM (inactive) | – | –
CC(=O)Oc1cc(OC(C)=O)c(OC(C)=O)c2c1CC1C(=O)C3(CCc4ccccc43)C(=O)C1C2 (configuration not stated) | 14.2 µM (inactive) | 18.1 µM (inactive) | 22.8 µM (inactive) | 14.4 µM (inactive) | 23.1 µM (inactive) | 14.7 µM (inactive) | 11.7 µM (inactive) | 28.5 µM (inactive) | –
O=[N+]([O-])c1ccc(C2=Nn3c(nnc3-c3ccc(Cl)cc3)SC2)o1 | 2.06 µM (inactive) | 14 µM (inactive) | 5.94 µM (inactive) | 4.67 µM (inactive) | 15.8 µM (inactive) | 14.3 µM (inactive) | 4.11 µM (inactive) | 19.2 µM (inactive) | 10.9 µM (inactive)
C[Si]1(C)C(c2ccccc2)=CC2C(c3ccccc3)(c3ccccc3)OC21c1ccccc1 (configuration not stated) | > 100 µM (inactive) | > 100 µM (inactive) | 92.9 µM (inactive) | > 100 µM (inactive) | – | > 100 µM (inactive) | 97.9 µM (inactive) | > 100 µM (inactive) | > 100 µM (inactive)
COc1cc(/C=C2\C(=O)N(C(=O)Cc3ccccc3)N=C2C)ccc1O | > 100 µM (inactive) | > 100 µM (inactive) | – | – | > 100 µM (inactive) | > 100 µM (inactive) | > 100 µM (inactive) | > 100 µM (inactive) | –
[O-][Cl+3]([O-])([O-])[O-].c1ccc(-c2[o+]c(-c3ccccc3)c(-c3ccccc3)c(-c3ccccc3)c2-c2ccccc2)cc1 | > 100 µM (inactive) | > 100 µM (inactive) | > 100 µM (inactive) | > 100 µM (inactive) | > 100 µM (inactive) | – | – | > 100 µM (inactive) | > 100 µM (inactive)
CC/C(CC(=O)CCC(=O)Nc1ccccc1[N+](=O)[O-])=N/NC(=O)C[n+]1ccccc1 | – | > 100 µM (inactive) | > 100 µM (inactive) | > 100 µM (inactive) | > 100 µM (inactive) | – | – | > 100 µM (inactive) | > 100 µM (inactive)
COc1ccc(/C(=N\NC(=O)C(N)=O)C(c2ccc(OC)cc2)C2(O)C(=O)Nc3c(Cl)cccc32)cc1 (configuration not stated) | > 100 µM (inactive) | – | > 100 µM (inactive) | > 100 µM (inactive) | > 100 µM (inactive) | > 100 µM (inactive) | > 100 µM (inactive) | > 100 µM (inactive) | –
Cc1cc(O)nc(NNC(C#N)c2cccc([N+](=O)[O-])c2)n1 (configuration not stated) | > 100 µM (inactive) | > 100 µM (inactive) | > 100 µM (inactive) | > 100 µM (inactive) | > 100 µM (inactive) | – | > 100 µM (inactive) | > 100 µM (inactive) | –
CC1=CP(=O)(OC(C)C)C=C(C)C1=C(Cl)Cl (configuration not stated) | > 100 µM (inactive) | 44.7 µM (inactive) | 39.1 µM (inactive) | 30.7 µM (inactive) | – | > 100 µM (inactive) | 50.1 µM (inactive) | > 100 µM (inactive) | 11.8 µM (inactive)
COc1cc(C(C#N)NNC(=O)Cc2ccccc2)cc(OC)c1OC (configuration not stated) | > 100 µM (inactive) | > 100 µM (inactive) | > 100 µM (inactive) | > 100 µM (inactive) | > 100 µM (inactive) | – | 99.1 µM (inactive) | > 100 µM (inactive) | –
O=C(O)C1=C(Cl)c2ccccc2S1(=O)=O | > 100 µM (inactive) | – | > 100 µM (inactive) | > 100 µM (inactive) | > 100 µM (inactive) | > 100 µM (inactive) | > 100 µM (inactive) | – | > 100 µM (inactive)
Cc1ccc(CC(C)N)cc1 (configuration not stated) | > 100 µM (inactive) | > 100 µM (inactive) | > 100 µM (inactive) | > 100 µM (inactive) | > 100 µM (inactive) | – | > 100 µM (inactive) | > 100 µM (inactive) | > 100 µM (inactive)
NC(=S)N/N=C/c1nccc2ccccc12 | 1.12 µM (active) | 0.272 µM (active) | 0.375 µM (active) | 1.96 µM (inactive) | – | – | 0.361 µM (active) | 1.21 µM (inactive) | –

From ChEMBL document CHEMBL1201862, “PubChem BioAssay data set” (2004)
